Compound | melting point
CCCc1nc(OC)c(NC(=O)N2CCN(c3cccc(O)c3)CC2)cc1C | 153 to 155 °C
CCOc1cnc(C(C)C)nc1O | 154 °C
Cc1cc(C)nc(C(=O)n2cc(CC(=O)O)c3ccc(Cl)cc32)c1 | 219 to 220 °C
COc1ccc2c(c1)c1c(n2C(=O)c2ccccc2)CCC(C(=O)O)C1 (configuration not stated) | 216 to 219 °C
CN1CCN(c2nc3ccc(Br)c4c3n2CCC4)CC1 | 132 to 133 °C
O=C1CN(C(=O)c2ccccc2Cl)c2ccccc2N1 | 222 to 224 °C
CCOC1=CC(=O)N([C@@H]2c3cc(C#N)ccc3OC(C)(C)[C@H]2OC(C)=O)C1 (relative stereo) | 156 °C
C=C(C(=O)c1ccc(C(=O)NCCN2CCOCC2)cc1)c1cc(OC)c(OC)c(-c2cccs2)c1 | 84 to 87 °C
CC(C)c1ccc(C(O)C(=O)O)cc1 (configuration not stated) | 156 to 157 °C
NCCNc1cc(-n2cccn2)nc(-c2cccs2)n1 | 147 °C
c1ccc(-c2cc3n(n2)CCNC3CC2CCCCC2)cc1 (racemic) | 128 to 130 °C
Cc1ccc(Cc2cnc(NCCSCc3csc(CN(C)C)n3)[nH]c2=O)cn1 | 154 to 155 °C
CCOC(=NC(=O)c1ccc(-c2ccccc2)cc1)N1Cc2ccccc2-c2ccccc2C1 | 52 to 58 °C
Cc1oc(-c2ccco2)nc1COc1ccc(CCl)cc1Cl | 103 to 104 °C
CC(C)c1ccc(C2(OC(=O)N(C)C)C(=O)c3ccccc3C2=O)c(OC(=O)N(C)C)c1 | 203 to 205 °C
CCOC=C(C=O)c1ccc(Br)cc1 | 152 to 156 °C
O=C(Nc1cnn2ccccc12)C1CC1 | 159 to 162 °C
CC(C)(O)C(=O)Nc1ccc(Nc2ccccc2)cc1 | 171 to 174 °C
CC(=O)c1ccc2c(c1)C=CC(=CCl)CO2 | 85 to 90 °C

Compound | melting point
CCCCCCCCCCCCCCCCOc1cc(OC)c([N+](=O)[O-])cc1OC | 71 °C
CC(=O)N1c2ccccc2-n2cc(Cc3cccnc3)c(=O)c3cccc1c32 | 143 to 144 °C
COCC(OC(C)=O)C1CC(=O)C2(C)CCC3C(CCC4=CC(=O)C=C(C)C43C)C12 (configuration not stated) | 184 to 185 °C
COC(=O)[C@H](CCCCNC(=O)c1ccc(C(=O)c2ccccc2)cc1)n1c2ccccc2c2ccccc21 | 65 °C
CN(C)Cc1ccc(CSCCNC2=NS(=O)(=O)C(C(=O)N(C)C)=C2N)o1 | 101 to 104 °C
O=C1CCC(N2Cc3c(CNC(=S)NC4CCCCC4)cccc3C2=O)C(=O)N1 (configuration not stated) | > 260 °C
CC(C)(C)c1ccc(Oc2nc(Nc3cccc(C(=O)O)c3)nc(Oc3ccccc3)n2)cc1 | 245 to 247 °C
Cc1ccc(Oc2ccc(-c3nnc(N)o3)cc2)c(O)c1 | 181 to 183 °C
COC(=O)COc1ccc2cc(-c3cnc(-c4cn(Cc5ccccc5)c5ccccc45)o3)ccc2c1 | 204 to 207 °C
COc1ccc(C(=O)Nc2ccccc2C(C)c2ccccn2)cc1 (configuration not stated) | 125 to 126 °C
c1ccc(-c2cn3c4c(sc3n2)CCCC4)cc1 | 158 to 160 °C
Cc1ncccc1C#N | 55 °C
CCNC(=O)N(C)Cc1cccc2c1CN(C1CCC(=O)NC1=O)C2=O (configuration not stated) | 183 to 185 °C
CC1(C)CC2(CC(C)(C)N1c1nc(N(CCO)CCO)nc(N3CCOCC3)n1)OCCO2 | 135 to 140 °C
CCCCCc1ccc(C#Cc2c3ccccc3c3ccc4c(C#Cc5ccc(CCCCC)cc5)c5ccccc5c5ccc2c3c45)cc1 | 256 to 257 °C
COc1ccc(CNC(=O)c2sc3ccccc3c2Br)cc1 | 123 to 124 °C
CCCCCCCN(CC1(c2ccccc2)CCCC1)C(=O)Nc1ccc(F)cc1F | 88 to 90 °C
CCCCCC(C)Oc1cc(O)c2c(c1)OC(C)(C)C1CCC(=O)C=C21 (configuration not stated) | 185 to 189 °C
COc1cccc(-n2c(=O)[nH]c3c(C(N)=O)nc(-c4cccc(O)c4)nc32)c1F | > 260 °C

Other lines, results leading:

melting point | Compound
145 to 147 °C | O=C1c2ccccc2C(=O)N1c1ccccc1CSc1nccn1-c1ccncc1
255 to 256 °C | COc1ccc(-c2c(Br)c(CN3C(=O)CCC3=O)nc3sc4c(c23)CCN(Cc2ccccc2)C4)cc1
150 °C | CC(C)n1c(=O)[nH]oc1=O
162 to 164 °C | Cc1oc(-c2ccccc2)nc1COc1ccc(CCCC2OC(=O)NC2=O)cc1O (configuration not stated)
86 to 87 °C | CC[C@H](C)[C@H](Nc1nc2ccccc2c(=O)o1)C(=O)OC
177 to 178 °C | CN(NC(=O)c1c(Cl)cccc1Cl)S(=O)(=O)c1ccccc1
169 to 170 °C | CCC(=O)c1ccc(NC(C)=O)cc1
258 to 265 °C | CC(=O)c1cc2c(=O)n(NS(C)(=O)=O)c(=O)[nH]c2cc1C(F)(F)F
175 °C | COc1ccc(S(=O)(=O)Nc2c(C)cc(C#N)cc2C(=O)O)cc1
215 to 216 °C | CC(=O)Nc1ccc(OC(C)=O)c2cnsc12
105 to 107 °C | CCN(CC)CCCCC(=O)c1cc(Cl)c(N)cc1OCc1cc(OC)cc(OC)c1
155 to 157 °C | COc1cc2c(-c3ccnc(NN)c3)c(CO)c(CO)cc2cc1OCc1ccccc1
42 to 43 °C | CCOC(=O)c1sc2ccc(OC)cc2c1OCC
51 to 52 °C | Cc1ccc(C)c(OCCCC(C)(C)C(=O)Nc2cccc(C3=NC(C)(C)CO3)c2C)c1
209 to 210 °C | CC1(c2ccc([N+](=O)[O-])cc2)C(=O)Nc2cc(Cl)ccc2C1=O (configuration not stated)
206 °C | NC(=O)c1sc2ccc(OCc3ccccc3)cc2c1Cl
169 to 170 °C | O=Cc1c2n(c3cc4c(cc13)OCO4)CCC2

melting point | Compound
144 °C | CCOc1cc(C(F)(F)F)sc1C(=O)O
111 to 113 °C | COC(=O)[C@H](Cc1ccccc1)NC(=O)[C@H](Cc1ccccc1)NC(=O)c1cnccn1
119 to 120 °C | CC[Si](C#CC1(COCc2ccccc2)OC(n2ccc(=O)[nH]c2=O)C(O)C1OCc1ccccc1)(CC)CC (configuration not stated)
165 to 167 °C | Cc1ccc(C)c(-c2cn(C)cc(-c3cccc(C(F)(F)F)c3)c2=O)c1
250 °C | COc1cccc2c1C(C)N1CC(=O)NC1=N2 (configuration not stated)
76 °C | O=C(O)CCCc1cccc(CNC(=O)C2Cc3ccccc3N2S(=O)(=O)c2ccc(-c3cccc(C(F)(F)F)c3)cc2)c1 (configuration not stated)
140 to 142 °C | C=C1c2ccccc2C=Cn2c1nnc2S(C)=O (configuration not stated)
150 to 152 °C | CC12CCC3C(CCC4CC(=O)CCC43C)C1CCC2C#N (configuration not stated)
167 to 170 °C | CCCCNS(=O)(=O)CC(O)C(O)C(CC1CCCCC1)NC(=O)c1ccccn1 (configuration not stated)
48 to 49 °C | CC(C)=CCn1ccnc1[N+](=O)[O-]
93 to 94 °C | Cc1cc(-c2cccc(C(F)(F)F)c2)c2ncc(C(F)(F)F)nc2c1
216 to 218 °C | CC(=O)Nc1c(C)nc(N)c(C(=O)NNS(=O)(=O)c2ccccc2)c1C
232 to 234 °C | O=C1CNC(=O)N1c1ccncc1
170 to 172 °C | c1ccc(N(Cc2cccc3ccccc23)c2ccccc2)cc1
280 to 285 °C | O=S(=O)(O)c1ccc(Nc2ccnc3cc(Cl)ccc23)cc1Cl
32 °C | CC(=O)OCc1ccc(C=O)cc1
114 to 118 °C | COC(=O)C1=NN(c2ccc(F)cc2)C(C)(C(=O)OC)C1 (configuration not stated)

— a melting point compilation (Tetko et al.; mined from patent text by program, amines drawn as free bases though some values may be those of a salt)
